Experiment: xn = mol fraction of the nth substance listed
Conditions: 101 kPa, Liquid, Vibrating tube method

CC(C)CO [2-methyl-1-propanol] + CC(=O)O
mass density [kg/m3]
Conditions	293.15 K	298.15 K	303.15 K	313.15 K	323.15 K	333.15 K
x2 = 0.0813	814.94	810.95	806.92	798.73	790.31	781.64
x2 = 0.1574	827.82	823.71	819.56	811.15	802.54	793.68
x2 = 0.2405	842.93	838.69	834.42	825.76	816.92	807.86
x2 = 0.319	858.14	853.78	849.39	840.5	831.45	822.19
x2 = 0.4018	875.36	870.87	866.35	857.21	847.92	838.44
x2 = 0.4803	892.9	888.27	883.63	874.24	864.7	855.01
x2 = 0.5599	911.99	907.22	902.44	892.78	883	873.07
x2 = 0.6396	932.48	927.56	922.63	912.7	902.65	892.49
x2 = 0.7199	954.87	949.79	944.71	934.47	924.16	913.72
x2 = 0.7998	979.04	973.8	968.56	958.02	947.4	936.71
x2 = 0.8786	1004.98	999.57	994.16	983.31	972.4	961.43
x2 = 0.9595	1033.93	1028.35	1022.77	1011.59	1000.4	989.16

CC(=O)O [acetic acid] + CCC(C)O
mass density [kg/m3]
Conditions	293.15 K	298.15 K	303.15 K	313.15 K	323.15 K	333.15 K
x1 = 0.0822	819.04	814.82	810.53	801.69	792.5	782.93
x1 = 0.1628	832.16	827.83	823.44	814.46	805.17	795.54
x1 = 0.2395	845.65	841.23	836.76	827.62	818.22	808.51
x1 = 0.321	861.12	856.58	852	842.7	833.16	823.36
x1 = 0.3979	876.8	872.17	867.49	858.02	848.33	838.39
x1 = 0.4759	893.89	889.16	884.37	874.69	864.83	854.77
x1 = 0.5611	914	909.12	904.22	894.32	884.26	874
x1 = 0.6399	934.04	929.04	924.01	913.87	903.62	893.19
x1 = 0.7197	955.97	950.84	945.68	935.3	924.81	914.19
x1 = 0.8003	980.06	974.78	969.49	958.84	948.1	937.26
x1 = 0.8796	1005.8	1000.35	994.91	983.99	973.01	961.97
x1 = 0.9365	1025.67	1020.12	1014.58	1003.46	992.31	981.11
x1 = 0.9586	1033.71	1028.12	1022.54	1011.36	1000.14	988.87

CCC(C)(C)O [2-methylbutan-2-ol] + CC(=O)O
mass density [kg/m3]
Conditions	283.15 K	293.15 K	303.15 K	313.15 K	323.15 K	333.15 K
x2 = 0.0794	819.64	814.95	810.22	800.6	790.72	780.53
x2 = 0.0827	820.07	815.38	810.64	801.02	791.14	780.94
x2 = 0.1664	832.07	827.35	822.59	812.92	803.02	792.86
x2 = 0.1672	832.17	827.45	822.69	813.02	803.12	792.96
x2 = 0.2361	842.73	838.01	833.24	823.57	813.68	803.54
x2 = 0.3176	856.35	851.61	846.84	837.15	827.25	817.14
x2 = 0.3914	869.87	865.1	860.3	850.57	840.64	830.51
x2 = 0.4798	887.62	882.8	877.94	868.11	858.1	847.89
x2 = 0.5577	904.94	900.05	895.12	885.16	875.04	864.74
x2 = 0.6427	925.88	920.88	915.86	905.72	895.44	885.01
x2 = 0.7195	946.94	941.83	936.71	926.37	915.92	905.33
x2 = 0.7999	971.66	966.42	961.16	950.58	939.91	929.13
x2 = 0.8769	998.52	993.12	987.72	976.88	965.96	954.98
x2 = 0.96	1031.62	1026.04	1020.47	1009.32	998.13	986.89
